Type in all cases: cell-based
The target of one assay is T1, hGIPR (Homo sapiens, UniProt P48546).
T1 construct: expressed in transfected cells
T1 sequence (P48546 22-466): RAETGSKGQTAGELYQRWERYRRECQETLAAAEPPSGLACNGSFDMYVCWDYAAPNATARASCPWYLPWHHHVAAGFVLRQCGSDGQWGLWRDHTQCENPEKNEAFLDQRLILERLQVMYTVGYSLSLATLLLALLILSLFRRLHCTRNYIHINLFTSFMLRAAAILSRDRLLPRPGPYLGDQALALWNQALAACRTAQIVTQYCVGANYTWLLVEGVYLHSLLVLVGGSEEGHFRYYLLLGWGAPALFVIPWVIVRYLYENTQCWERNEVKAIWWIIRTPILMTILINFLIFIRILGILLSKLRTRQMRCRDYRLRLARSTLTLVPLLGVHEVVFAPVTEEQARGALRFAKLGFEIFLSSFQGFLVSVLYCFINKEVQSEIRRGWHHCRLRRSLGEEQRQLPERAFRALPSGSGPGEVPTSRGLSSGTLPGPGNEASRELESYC
The assay is described as follows: Functional cAMP formation (HTRF) in HEK-293 clonal cells expressing hGIPR, 0.1% bovine casein, without or with 1.0% human serum albumin. The conditions noted are these: for EC50: cAMP, 0.1% bovine casein (no human serum albumin), geometric mean. Put shortly: (§1)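 Readings of the HTRF 665/620 nm ratio, which falls as cAMP rises, were converted to nM cAMP using a standard curve after 30 min peptide exposure at 37° C.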
A general note: cAMP levels reflect the balance of adenylyl cyclase and phosphodiesterase activity.

The target in a further assay is hGLP-1R (Homo sapiens, UniProt P43220). Kind of assay: Functional cAMP formation (HTRF) in HEK-293 clonal cells expressing hGLP-1R, 0.1% bovine casein, without or with 1.0% human serum albumin. Also on record: expressed in transfected cells. Conditions: for EC50: cAMP, 0.1% bovine casein (no human serum albumin), geometric mean. In a few lines: as §1
hGLP-1R, sequence (P43220 24-463): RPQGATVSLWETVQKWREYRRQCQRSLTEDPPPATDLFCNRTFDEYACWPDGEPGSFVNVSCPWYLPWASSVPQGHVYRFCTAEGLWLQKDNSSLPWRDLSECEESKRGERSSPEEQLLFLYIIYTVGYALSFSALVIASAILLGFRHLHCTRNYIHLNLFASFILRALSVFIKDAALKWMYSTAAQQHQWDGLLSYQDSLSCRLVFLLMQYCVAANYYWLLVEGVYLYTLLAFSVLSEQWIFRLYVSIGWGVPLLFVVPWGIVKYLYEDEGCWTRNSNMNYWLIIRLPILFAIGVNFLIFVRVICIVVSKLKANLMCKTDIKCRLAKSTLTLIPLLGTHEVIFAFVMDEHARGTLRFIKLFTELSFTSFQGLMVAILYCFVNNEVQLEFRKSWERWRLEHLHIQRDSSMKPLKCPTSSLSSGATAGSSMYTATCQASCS
The target in the next assay is T2, hGCGR (Homo sapiens, UniProt P47871).
T2 construct: expressed in transfected cells
T2 sequence (P47871 26-477): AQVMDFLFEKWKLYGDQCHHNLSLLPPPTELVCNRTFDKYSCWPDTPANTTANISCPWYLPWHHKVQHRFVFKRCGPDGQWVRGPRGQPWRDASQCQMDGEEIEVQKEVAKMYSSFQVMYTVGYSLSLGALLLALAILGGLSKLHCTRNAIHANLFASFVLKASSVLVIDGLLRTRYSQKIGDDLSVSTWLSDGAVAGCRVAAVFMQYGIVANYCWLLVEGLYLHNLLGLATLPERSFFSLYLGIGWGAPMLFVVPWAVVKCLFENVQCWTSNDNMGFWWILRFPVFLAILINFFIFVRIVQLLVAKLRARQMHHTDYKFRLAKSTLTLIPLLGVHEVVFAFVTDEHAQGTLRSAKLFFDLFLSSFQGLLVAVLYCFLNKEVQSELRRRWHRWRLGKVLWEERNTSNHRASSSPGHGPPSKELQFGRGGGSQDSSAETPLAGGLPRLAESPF
Kind of assay: Functional cAMP formation (HTRF) in HEK-293 clonal cells expressing hGCGR, 0.1% bovine casein, without or with 1.0% human serum albumin. In a few lines:
as §1

Setting [1] is: 37° C., read-out: hGIPR EC50, nM (SEM, n).
[2] abbreviates: 37° C., read-out: hGLP-1R EC50, nM (SEM, n).
The mark [3] stands for this setting: cAMP, 37° C., 0.1% bovine casein (no human serum albumin), geometric mean, read-out: hGCGR EC50, nM (SEM, n).

Like-named read-outs stand apart in the source and are kept apart here. *1 amine or outer side, *2 acyl side, *3 side chain or, on linkers, in order; H or OH if unused. Where a SMILES comes first, the peptide text is derived from it. Side-chain parts run from the residue outwards. [ ]: non-standard residue; d: D form. The star is where a group is joined. αMePhe(2-F) = C[C@](N)(Cc1ccccc1F)C(=O)O; γGlu = O=C(O)[C@H](CCC(=O)[*:2])N[*:1]; C14 diacid = O=C(O)CCCCCCCCCCCCC(=O)*; αMeY = C[C@](N)(Cc1ccc(O)cc1)C(=O)O; 4Pal = N[C@@H](Cc1ccncc1)C(=O)O; αMeL = CC(C)C[C@](C)(N)C(=O)O; Orn = NCCC[C@H](N)C(=O)O; AEEA = NCCOCCOCC(=O)O; Aib = CC(C)(N)C(=O)O

What is called Emax is the maximal effect, on the per cent scale that the assay sets. The term EC50 denotes the midpoint of the concentration-response curve.

With `CC[C@H](C)[C@H](NC(=O)[C@H](CCCN)NC(=O)[C@H](CC(=O)O)NC(=O)[C@H](CC(C)C)NC(=O)[C@](C)(CC(C)C)NC(=O)[C@@H](NC(=O)C(C)(C)NC(=O)[C@H](Cc1ccncc1)NC(=O)[C@H](CC(=O)O)NC(=O)[C@H](CO)NC(=O)[C@@H](NC(=O)[C@](C)(Cc1ccccc1F)NC(=O)[C@@H](NC(=O)CNC(=O)[C@H](CCC(=O)O)NC(=O)C(C)(C)NC(=O)[C@@H](N)Cc1ccc(O)cc1)[C@@H](C)O)[C@@H](C)O)[C@@H](C)CC)C(=O)N[C@@H](C)C(=O)N[C@@H](CCC(N)=O)C(=O)NC(C)(C)C(=O)N[C@@H](CCCCNC(=O)COCCOCCNC(=O)CC[C@H](NC(=O)CCCCCCCCCCCCC(=O)O)C(=O)O)C(=O)N[C@@H](Cc1ccccc1)C(=O)N[C@H](C(=O)N[C@H](CCC(=O)O)C(=O)N[C@@](C)(Cc1ccc(O)cc1)C(=O)N[C@@H](CC(C)C)C(=O)N[C@H](C(=O)N[C@@H](CCC(=O)O)C(=O)NCC(=O)NCC(=O)N1CCC[C@H]1C(=O)N[C@@H](CO)C(=O)N[C@@H](CO)C(=O)NCC(=O)N[C@@H](C)C(=O)N1CCC[C@H]1C(=O)N1CCC[C@H]1C(=O)N1CCC[C@H]1C(=O)N[C@@H](CO)C(=O)N[C@@H](CCCCNC(=O)COCCOCCNC(=O)CC[C@H](NC(=O)CCCCCCCCCCCCC(=O)O)C(=O)O)C(N)=O)[C@@H](C)CC)[C@@H](C)CC` [Example 341] (H-Y[Aib]EGT[αMePhe(2-F)]TSD[4Pal][Aib]I[αMeL]LD[Orn]IAQ[Aib]K([AEEA-γGlu-C14 diacid])FI[dE][αMeY]LIEGGPSSGAPPPSK([AEEA-γGlu-C14 diacid])-NH2), the Emax worked out at 83.6% on hGIPR (HEK293, cAMP, 37° C., 0.1% bovine casein and 1.0% human serum albumin, percent of maximal response to GIP(1-42)NH2, read-out: hGIPR Emax, % ± SEM); 91.4% at hGIPR (HEK293, cAMP, 37° C., 0.1% bovine casein, percent of maximal response to GIP(1-42)NH2, arithmetic mean, read-out: hGIPR Emax, % ± SEM); 113% on hGLP-1R (HEK293, cAMP, 37° C., 0.1% bovine casein and 1.0% human serum albumin, percent of maximal response to GLP-1(7-36)NH2, read-out: hGLP-1R Emax, % ± SEM). Moreover, the EC50 was 0.0127 nM at hGIPR (setting [1]); 0.329 nM on hGLP-1R (setting [2]); more than 9950 nM at hGCGR (setting [3]); more than 9950 nM on hGCGR (cAMP, 37° C., 0.1% bovine casein and 1.0% human serum albumin, geometric mean (SEM, n), read-out: hGCGR EC50, nM (SEM, n)).
Regarding `CC[C@H](C)[C@H](NC(=O)[C@H](CC(C)C)NC(=O)[C@](C)(Cc1ccc(O)cc1)NC(=O)[C@@H](CCC(=O)O)NC(=O)[C@@H](NC(=O)[C@H](Cc1ccccc1)NC(=O)[C@H](CCC(=O)O)NC(=O)C(C)(C)NC(=O)[C@H](CCC(N)=O)NC(=O)[C@H](C)NC(=O)[C@H](CCCCNC(=O)COCCOCCNC(=O)COCCOCCNC(=O)CC[C@H](NC(=O)CCCCCCCCCCCCC(=O)O)C(=O)O)NC(=O)[C@H](CCCN)NC(=O)[C@H](CC(=O)O)NC(=O)[C@H](CC(C)C)NC(=O)[C@](C)(CC(C)C)NC(=O)[C@@H](NC(=O)[C@H](CN)NC(=O)[C@H](Cc1ccncc1)NC(=O)[C@H](CC(=O)O)NC(=O)[C@H](CO)NC(=O)[C@@H](NC(=O)[C@](C)(Cc1ccccc1F)NC(=O)[C@@H](NC(=O)CNC(=O)[C@H](CCC(=O)O)NC(=O)C(C)(C)NC(=O)[C@@H](N)Cc1ccc(O)cc1)[C@@H](C)O)[C@@H](C)O)[C@@H](C)CC)[C@@H](C)CC)C(=O)N[C@@H](CCC(=O)O)C(=O)NCC(=O)NCC(=O)N[C@@H](CCCCNC(=O)COCCOCCNC(=O)COCCOCCNC(=O)CC[C@H](NC(=O)CCCCCCCCCCCCC(=O)O)C(=O)O)C(=O)N[C@@H](CO)C(=O)N[C@@H](CO)C(=O)NCC(=O)N[C@@H](C)C(=O)N1CCC[C@H]1C(=O)N1CCC[C@H]1C(=O)N1CCC[C@H]1C(=O)N[C@@H](CO)C(N)=O` [Example 199], the Emax at hGIPR (HEK293, 0.1% bovine casein and 1.0% human serum albumin, 37° C., percent of maximal response to GIP(1-42)NH2, read-out: hGIPR Emax, % ± SEM) was 77.1%; at hGIPR (HEK293, percent of maximal response to GIP(1-42)NH2, 37° C., 0.1% bovine casein, arithmetic mean, read-out: hGIPR Emax, % ± SEM) it was 96.9 ± 1.48%; on hGLP-1R (HEK293, 0.1% bovine casein and 1.0% human serum albumin, 37° C., percent of maximal response to GLP-1(7-36)NH2, read-out: hGLP-1R Emax, % ± SEM), 100%; at hGLP-1R (HEK293, percent of maximal response to GLP-1(7-36)NH2, 37° C., 0.1% bovine casein, arithmetic mean, read-out: hGLP-1R Emax, % ± SEM), 96.7 ± 6.69%. Also, the EC50 at hGIPR (incubated at 37° C., read-out: hGIPR EC50, nM (SEM, n)) is 0.0587 nM; at hGCGR (0.1% bovine casein and 1.0% human serum albumin, 37° C., geometric mean, read-out: hGCGR EC50, nM (SEM, n)), more than 9950 nM; on hGCGR (cAMP, incubated at 37° C., 0.1% bovine casein (no human serum albumin), geometric mean, read-out: hGCGR EC50, nM (SEM, n)) it was more than 9950 nM.
As for `CC[C@H](C)[C@H](NC(=O)[C@H](CCCN)NC(=O)[C@H](CC(=O)O)NC(=O)[C@H](CC(C)C)NC(=O)[C@](C)(CC(C)C)NC(=O)[C@@H](NC(=O)C(C)(C)NC(=O)[C@@H](NC(=O)[C@H](CC(=O)O)NC(=O)[C@H](CO)NC(=O)[C@@H](NC(=O)[C@](C)(Cc1ccccc1F)NC(=O)[C@@H](NC(=O)CNC(=O)[C@H](CCC(=O)O)NC(=O)C(C)(C)NC(=O)[C@@H](N)Cc1ccc(O)cc1)[C@@H](C)O)[C@@H](C)O)C(C)C)[C@@H](C)CC)C(=O)N[C@@H](C)C(=O)N[C@@H](CCC(N)=O)C(=O)NC(C)(C)C(=O)N[C@@H](CCCCNC(=O)COCCOCCNC(=O)COCCOCCNC(=O)CC[C@H](NC(=O)CCCCCCCCCOc1ccc(C(=O)O)cc1)C(=O)O)C(=O)N[C@@H](Cc1ccccc1)C(=O)N[C@H](C(=O)N[C@H](CCC(=O)O)C(=O)N[C@@](C)(Cc1ccc(O)cc1)C(=O)N[C@@H](CC(C)C)C(=O)N[C@H](C(=O)N[C@@H](CCCCNC(=O)COCCOCCNC(=O)COCCOCCNC(=O)CC[C@H](NC(=O)CCCCCCCCCOc1ccc(C(=O)O)cc1)C(=O)O)C(=O)NCC(=O)NCC(=O)N1CCC[C@H]1C(=O)N[C@@H](CO)C(=O)N[C@@H](CO)C(=O)NCC(=O)N[C@@H](C)C(=O)N1CCC[C@H]1C(=O)N1CCC[C@H]1C(=O)N1CCC[C@H]1C(=O)N[C@@H](CO)C(N)=O)[C@@H](C)CC)[C@@H](C)CC` [Example 330], the Emax at hGIPR (HEK293, read-out: hGIPR Emax, % ± SEM, cAMP, 37° C., 0.1% bovine casein, percent of maximal response to GIP(1-42)NH2, arithmetic mean) came out at 112%; on hGLP-1R (HEK293, read-out: hGLP-1R Emax, % ± SEM, cAMP, 37° C., 0.1% bovine casein and 1.0% human serum albumin, percent of maximal response to GLP-1(7-36)NH2), 85%. Besides, the EC50 at hGIPR (hGIPR EC50, nM (SEM, n), 37° C.) is 0.0185 nM; at hGLP-1R (hGLP-1R EC50, nM (SEM, n), 37° C.), 0.477 nM; at hGCGR (hGCGR EC50, nM (SEM, n), cAMP, 37° C., 0.1% bovine casein (no human serum albumin), geometric mean), more than 9950 nM; at hGCGR (hGCGR EC50, nM (SEM, n), cAMP, 37° C., 0.1% bovine casein and 1.0% human serum albumin, geometric mean (SEM, n)), more than 9950 nM.
Regarding `CC[C@H](C)[C@H](NC(=O)[C@H](CCCN)NC(=O)[C@H](CC(=O)O)NC(=O)[C@H](CC(C)C)NC(=O)[C@](C)(CC(C)C)NC(=O)[C@@H](NC(=O)C(C)(C)NC(=O)[C@H](Cc1ccc(O)cc1)NC(=O)[C@H](CC(=O)O)NC(=O)[C@H](CO)NC(=O)[C@@H](NC(=O)[C@](C)(Cc1ccccc1F)NC(=O)[C@@H](NC(=O)CNC(=O)[C@H](CCC(=O)O)NC(=O)C(C)(C)NC(=O)[C@@H](N)Cc1ccc(O)cc1)[C@@H](C)O)[C@@H](C)O)[C@@H](C)CC)C(=O)N[C@@H](C)C(=O)N[C@@H](CCC(N)=O)C(=O)NC(C)(C)C(=O)N[C@@H](CCCCNC(=O)COCCOCCNC(=O)CC[C@H](NC(=O)CCCCCCCCCCCCC(=O)O)C(=O)O)C(=O)N[C@@H](Cc1ccccc1)C(=O)N[C@H](C(=O)N[C@H](CCC(=O)O)C(=O)N[C@@](C)(Cc1ccc(O)cc1)C(=O)N[C@@H](CC(C)C)C(=O)N[C@H](C(=O)N[C@@H](CCC(=O)O)C(=O)NCC(=O)NCC(=O)N1CCC[C@H]1C(=O)N[C@@H](CO)C(=O)N[C@@H](CO)C(=O)NCC(=O)N[C@@H](C)C(=O)N1CCC[C@H]1C(=O)N1CCC[C@H]1C(=O)N1CCC[C@H]1C(=O)N[C@@H](CO)C(=O)N[C@@H](CCCCNC(=O)COCCOCCNC(=O)CC[C@H](NC(=O)CCCCCCCCCCCCC(=O)O)C(=O)O)C(N)=O)[C@@H](C)CC)[C@@H](C)CC` [Example 371] (H-Y[Aib]EGT[αMePhe(2-F)]TSDY[Aib]I[αMeL]LD[Orn]IAQ[Aib]K([AEEA-γGlu-C14 diacid])FI[dE][αMeY]LIEGGPSSGAPPPSK([AEEA-γGlu-C14 diacid])-NH2), the EC50 was 0.0209 nM at hGIPR (setting [1]), 0.363 nM at hGLP-1R (setting [2]) and more than 9950 nM at hGCGR (setting [3]). For the same compound, the Emax on hGLP-1R (HEK293, cAMP, 37° C., 0.1% bovine casein, percent of maximal response to GLP-1(7-36)NH2, arithmetic mean, read-out: hGLP-1R Emax, % ± SEM) is 112%.

The values above are taken from patent US20230265151A1, “GIP/GLP1 CO-AGONIST COMPOUNDS” (priority 2020, published 2023).
